The values that follow are results of earlier work, collected in US20140343076A1, “PHARMACEUTICAL COMPOSITIONS OF LURASIDONE” (Cadila Healthcare Limited, priority 2013, published 2014).

Each structure is given as a SMILES string. Structures can show the parent of a compound that is named as a salt.

On to `O=C1[C@@H]2[C@H]3CC[C@H](C3)[C@@H]2C(=O)N1C[C@@H]1CCCC[C@H]1CN1CCN(c2nsc3ccccc23)CC1` [lurasidone, N-[4-[4-(1,2-benzisothiazol-3-yl)-1-piperazinyl]-(2R,3R)-2,3-tetramethylene-butyl]-(1′R,2′S,3′R,4′S)-2,3-bicyclo[2,2,1]heptanedicarboxyimide hydrochloride], for which the solubility in water result is listed as “less than several”.
